Reference: patent US12661308B2, “Antimicrobial AZO compounds and uses thereof” (The Regents Of The University Of Colorado, A Body Corporate, priority 2019, dated 2026)
Entries after “also recorded” stand apart in the source; their conditions may differ.

Experiments:
[1] = test system: S. mutans (ATCC 25175) biofilm; experiment: Detachment study of S. mutans biofilm on monomer-coated polymeric substrates (Example 1); type: cell-based, Streptococcus mutans
Method: The polymeric substrates were prepared by mixing 54 wt % methyl methacrylate (MMA), 30 wt % polymethylmethacrylate (PMMA, MW ˜35 k), and 16 wt % tetraethylene glycol dimethacrylate (TEGDMA) at 70° C. for 2 hr. After mixing, 1 wt. % azobisisobutyronitrile (AIBN) was added to the formulation as an initiator and mixed.
The mixed formulation was added to circular molds (diameter=6.5 mm) cut from a strip of rubber (thickness=0.9 mm) and pressed between two glass microscope slides. The mold was clamped together and thermally cured at 80° C. for 1.5 hr.
The polymeric substrates were coated as follows. Coating solutions were prepared having the following monomer concentrations (see FIG. 3 for structures of the monomers): 0.5 mg/mL and 50 mg/mL solutions of a phenolic acrylated azobenzene monomer (OH-AAZO), 50 mg/mL acrylated azobenzene monomer (AAZO), 50 mg/mL 4-hydroxyl benzylacrylate (HBA), 50 mg/mL 2-hydroxylethyl methacrylate (HEMA).
The coating solutions included the monomer in N,N′-dimethylformamide (DMF) along with 0.5 mg/mL of AIBN and 0.1 mg/mL of Rhodamine B as an indicator dye. Once mixed, 3 μL of each coating solution was pipetted onto one side of the polymeric substrate and spun at 1000 RPM for 1 min followed by spinning at 6000 RPM for 3 s. The coating was cured under a nail lamp (Melody Susie UV Gel Nail Polish Dryer, Model DR-301C) for at least 15 min before repeating the coating procedure on the other side.
The controlled growth of biofilms varied depending on the bacteria strain. In the case of S. mutans, a BHI agar plate was streaked with S. mutans (ATCC 25175) and allowed to incubate at 37° C. in 5% CO2 for 60 hr to isolate a single bacterial colony. The colony was inoculated in 5 mL of BHI and allowed to incubate statically in the 5% CO2 incubator for 24 hr. The stock solution was diluted 1:50 in a 96-well plate containing the substrates of interest and allowed to incubate in the 5% CO2 incubator for an additional 24 hr.
The detachment study quantified the biofilm grown on each substrate via a series of washes in 1×PBS. The substrate was irradiated using a dental lamp (FlashMax P3 Ortho™, 1900 mW/cm2, wavelength=450-470 nm) on the underside of the vial for a total of ten 3 s irradiations per side. Following the series of washes, the substrate was sonicated for 10 min to remove the residual biofilm on the substrate. The wash solutions were serial diluted, plated, and grown at 37° C. and 5% CO2 to obtain the CFU count.
Images collected from a digital microscope (Zeiss Axioplan II microscope, 630×, step size 0.1 μm) after the substrate and bacteria were treated with BACLIGHT Live/Dead stain are included in FIG. 4.

[2] = test system: S. mutans; experiment: Detachment study of S. mutans from OH-AAZO coated substrate with and without light (Example 2); type: cell-based, Streptococcus mutans; settings: 50 mg/mL coating
Method: In this Example, detachment of S. mutans from a polymeric substrate coated with a 50 mg/mL OH-AAZO solution was evaluated. Four conditions were evaluated. The first is where the polymeric substrate is coated with OH-AAZO and exposed to light to produce a photofluidization effect due to the rapid trans cis isomerization (Azo, light or AL). The second is where the polymeric substrate is coated with OH-AAZO and not exposed to light (Azo, no light or ANL). The third is where the polymeric substrate is not coated with OH-AAZO and is exposed to light (no Azo, light or NAL). The fourth is where the polymeric substrate is not coated with OH-AAZO and is not exposed to light (no Azo, no light or NANL).

[3] = test system: S. pyogenes (Group A strep, GAS); experiment: Growth study, S. pyogenes (Group A strep); type: cell-based, Streptococcus pyogenes; settings: 50 mg/ML coated substrates, BHI media, 24 h time-period
Method: A single bacterial colony was inoculated in 4 mL BHI media. The colony was grown to mid-log phase (to approximately OD600=0.4), statically at 37° C., which for was approximately 4 hours for the S. agalactiae GBS, approximately 11 hours for the S. pyogenes GAS, and approximately 6 hours for the S. pneumaoniae. They were diluted 1:5 in 80% glycerol (in water) solution (4 parts culture, 1 part glycerol, for a final glycerol concentration of 16%). In a 96-well plate, each was diluted to 1:100 resulting in a final concentration of 1×10^6 CFU/mL and grown at 37° C. with 5% CO2.

[4] = test system: S. mutans; experiment: DIBAC4(3) membrane potential assay; type: cell-based, Streptococcus mutans
Method: Membrane potential assays were performed as described by Wu et al. with minor modifications. Wu et al., Antibacterial activity and membrane-disruptive mechanism of 3-p-trans-coumaroyl-2-hydroxyquinic acid, a novel phenolic compound from pine needles of Cedrus deodara, against Staphylococcus aureus, Molecules (2016), 21(8):1-12. S. mutans bacteria grown for 24 h in BHI broth were inoculated in a 96-well plate as described above. The plate was incubated for 8 h at 37° C. and 5% CO2. 2 μL of 0.1 mg/mL DIBAC4 (3) solution in DMSO was added to each well. The plate was then incubated in the dark overnight. The fluorescence reading was taken in a plate reader at λexcitation=492 nm and λemission=515 nm. Fluorescence values in bacteria-containing wells were normalized against fluorescence values containing the same substrate but no bacteria.

C=CC(=O)Oc1ccccc1/N=N/c1ccccc1O [OH-AAZO, phenolic acrylated azobenzene]
antibacterial effect against S. mutans ([1]; 0.5 mg/mL coating solution, compared with 50 mg/mL coating): did not result in the same antibacterial effect | S. mutans growth on the surface of the coated substrate ([1]; 50 mg/mL coating, even prior to light/wash treatment): no growth at all | S. mutans biofilm on substrate, Live/Dead stain microscopy ([1]; prior to wash/light treatment): comparatively very little biofilm | S. mutans growth ([2]; exposed to light (AL), over 48 hr): no growth | S. mutans growth ([2]; no light (ANL), first 33 hr): minimal growth | S. mutans growth ([2]; no light (ANL), t=48 hr): some minimal biofilm growth | S. pyogenes growth on coated substrate and in media [3]: did not grow on the coated substrate nor in the media | DIBAC4(3) fluorescence of S. mutans ([4]; 5 mg/mL coated substrate, relative to uncoated control): slight reduction | DIBAC4(3) fluorescence of S. mutans ([4]; 25 mg/mL coated substrate): drop in fluorescence to zero | DIBAC4(3) fluorescence of S. mutans ([4]; 50 mg/mL coated substrate): drop in fluorescence to zero; also recorded: dropped to zero
